Results: patent US4985449A, “N-benzoyl-N-pyridyloxy phenyl urea compounds and pesticide compositions containing them” (Ishihara Sangyo Kaisha Ltd., priority 1986, dated 1991)

Legend:
[1] = tested on: house fly (Musca domestica); test: Egg hatch inhibition test by the treatment of adults of house fly (Test Example 6); type: in vivo; settings: po, 100 μg/g in diet of adult females for 3 days, unhatched eggs assessed one day after collection, read-out: ratio of the egg hatch inhibition (REHI)
Experimental: Sugar and skim milk were mixed in a weight ratio of 1:1, and 2 g of the mixture was put into a Petri dish having a diameter of 5.5 cm. 0.5 ml of an acetone solution containing the active ingredient was added to the mixture in the Petri dish. After acetone evaporated, the treated mixture was thoroughly mixed, and the concentration of the active ingredient was adjusted to 100 μg/g. Twenty non-mating females of house fly (Musca domestica) were allowed to feed on the poisoned diet (the treated mixture) in a cage. After 3 days, the diet was changed to the untreated mixture, then 20 non-mating males were released into the cage for mating. On the 3rd day after release, a cup of the medium for rearing fly larvae was set in the cage for oviposition for 7 hours. The egg laid on the medium were collected and kept on the moistened filter paper in a Petri dish. One day later, unhatched eggs were assessed and the ratio of the egg hatch inhibition (REHI) was calculated by the following equation: [formula]

[2] = tested on: two-spotted spider mite (Tetranychus urticae); test: Miticidal test against two-spotted spider mite (Test Example 1); type: in vivo; settings: 120 h, 200 ppm, 5th day after treatment, larvae and nimphs on French bean, 26° C.
Text: Each formulation containing an active ingredient was dispersed in water to obtain a dispersion of each active ingredient having a concentration of 800 or 200 ppm. Each of French bean seedlings with only on primary leaf left, was transplanted to a cup having a diameter of 7 cm and a height of 4 cm. About 30 larvae and […] of two-spotted spider mite (Tetranychus urticae) were infested to the leaf of the French bean. Then, the French bean was dipped in the dispersion having the concentration of 800 ppm or 200 ppm for about 10 seconds, then dried in air and kept in a constant temperature chamber with lightening at 26° C. On the 5th day after the treatment, dead mites were counted, and the mortality was calculated by the following equation: [formula]

[3] = tested on: common cutworm (Spodoptera litura); test: Insecticidal test against common cutworm (Test Example 3); type: in vivo; settings: 168 h, second or third instar larvae, 7th day after release
Text: (§1) Each formulation containing an active ingredient was dispersed in water to obtain a dispersion of each active ingredient having a concentration of 10 ppm. Leaves of cabbage were dipped in the respective dispersions for about 10 seconds, and then dried in air. A sheet of moistened filter paper was placed in a Petri dish having a diameter of 9 cm, and the dried leaves of cabbage were put on the filter paper. Larvae of diamondback moth (Plutella xylostella) in second or third instar were released on the leaves, and the Petri dishes were covered and kept in a constant temperature chamber with lightening at a temperature of 26° C. On the 7th day after release, dead insects were counted, and the mortality was calculated by the following equation: […]
(§2) The tests were conducted in the same manner as in Test Example 2 except that larvae of common cutworm (Spodoptera litura) in second or third instar were used instead of larvae of the diamondback moth in second or third instar, and the concentration of the active ingredient was changed from 10 ppm to 800 ppm or 1 ppm.

[4] = tested on: diamondback moth (Plutella xylostella); test: Insecticidal test against diamondback moth (Test Example 2); type: in vivo; settings: 168 h, second or third instar larvae, 7th day after release, 26° C.
Text: as §1

Common cutworm = test: Insecticidal test (C-value) against common cutworm (Test Example 7-I); type: in vivo; settings: Spodoptera litura, 168 h; minimum concentration at which no less than 90% of insects are killed
Text: as §1, §2
(§3) In the same manner as in Test Examples 2 and 3, insecticidal tests against diamondback moth and common cutworm were conducted with respect to each compound, and the minimum concentrations at which no less than 90% of insects are killed (hereinafter referred to as C-value), were obtained.

Diamondback moth = test: Insecticidal test (C-value) against diamondback moth (Test Example 7-I); type: in vivo; settings: Plutella xylostella, 168 h; minimum concentration at which no less than 90% of insects are killed
Text: as §1, §3

Daphnia magna Straus = test: Acute Immobilisation Test against Daphnia magna Straus (Test Example 7-II); type: in vivo; settings: first instar larvae; up to 48 hours; 23±1° C.; OECD guideline; Probit method
Experimental: An acetone solution of each compound was dispersed in water to obtain test solutions having various concentrations of the active ingredient. 250 ml of each test solution was introduced into a 430 ml glass beaker. Into each beaker, 10 first instar larvae born within 24 hours were released and kept at the solution temperature of 23±1° C. The immobilisation up to 48 hours after the release of the larvae was investigated in accordance with the OECD test guideline. The test was repeated 2-3 times in two series for each concentration. The 50% immobilisation concentration (EC50, ppb) was obtained by Probit method.

[5] = Residual test in soil (Test Example 7-III); settings: upland volcanic ash soil, irrigated condition; 5 ppm; 20 days; 30° C.
Experimental: Upland soil (volcanic ash soil) was screened through a sieve with a mesh size of 5 mm, and 20 g by dry weight basis of the soil was put into a 100 ml Erlenmeyer flask. Then, distilled water was introduced to simulate an irrigated condition with a water depth of 1 cm. An aluminum foil was put on the top of the flask, and the flask was left to stand still for 1 week in an incubator (dark place) at 30° C.
0.5 ml of a 200 ppm dispersion in acetone of each compound (100 μg) was added to the flask by means of a pipet (to a concentration of 5 ppm). The flask was closed and thoroughly shaked, and the soil attached to the closure was washed into the flask with a small amount of water. Then, the top of the flask was covered with an aluminum foil, and the flask was subjected to incubation in a growth cabinet (30° C., humidity: 60%, continuously lighted with a fluorescent lamp with 9,000 lux). 20 Days later, the total 20 g of the soil was subjected to analysis, and the remaining amount of the compound was measured.

## CN(C(=O)NC(=O)c1c(F)cccc1F)c1ccc(Oc2ccc(C(F)(F)F)cc2Cl)c(F)c1F [Compound No. 5, N-[4-(2-chloro-4-trifluoromethylphenoxy)-2,3-difluorophenyl]-N'-(2,6-difluorobenzoyl)-N-methylurea]
[1]
  inhibition at 100 µg/g: 100%

## CN(C(=O)NC(=O)c1c(F)cccc1F)c1ccc(Oc2ccc(C(F)(F)F)cc2Cl)cc1 [Compound No. 18, N-[4-(2-chloro-4-trifluoromethylphenoxy)phenyl]-N'-(2,6-difluorobenzoyl)-N-methylurea]
[2]
  mortality at 200 ppm: 100%

## CN(C(=O)NC(=O)c1c(F)cccc1F)c1ccc(-c2ccc(Br)cc2)cc1 [Compound No. 29, N-(4'-bromo-4-biphenylyl)-N'-(2,6difluorobenzoyl)-N-methylurea]
[3]
  mortality at 1 ppm: 100%
[1]
  inhibition at 100 µg/g: 100%

## CN(C(=O)NC(=O)c1c(F)cccc1F)c1ccc(-c2ccc(Cl)cc2)c(F)c1 [Compound No. 31, N-[4'-chloro-2-fluoro-4biphenylyl)-N'-(2,6-difluorobenzoyl)-N-methylurea]
[1]
  inhibition at 100 µg/g: 100%

## Cc1cc(N(C)C(=O)NC(=O)c2c(F)cccc2F)ccc1Oc1ncc(C(F)(F)F)cc1Cl [Compound No. 76]
[4]
  mortality at 10 ppm: 100%

## CN(C(=O)NC(=O)c1ccccc1Br)c1ccc(Oc2ncc(C(F)(F)F)cc2Cl)cc1 [Compound No. 80]
[3]
  mortality at 1 ppm: 100%

## CN(C(=O)NC(=O)c1c(F)cccc1F)c1ccc(Oc2ncc(C(F)(F)F)cc2Cl)c(Cl)c1 [compound 15, N-[3-chloro-4-(3-chloro-5-trifluoromethyl-2-pyridyloxy)-phenyl]-N'-(2,6-difluorobenzoyl)-N-methylurea]
[1]
  inhibition at 100 µg/g: 100%

## Cc1cc(Oc2ncc(C(F)(F)F)cc2Cl)ccc1N(C)C(=O)NC(=O)c1c(F)cccc1F [compound 20, N-[4-(3-chloro-5-trifluoromethyl-2-pyridyloxy)-2-methylphenyl]-N'-(2,6-difluorobenzoyl)-N-methylurea]
[1]
  inhibition at 100 µg/g: 100%

## CN(C(=O)NC(=O)c1c(F)cccc1F)c1ccc(Oc2ccc(SC(F)(F)F)cc2)cc1 [compound 39]
[4]
  mortality at 10 ppm: 100%

## CN(C(=O)NC(=O)c1c(F)cccc1F)c1ccc(Oc2ccc(C(F)(F)F)cc2)cc1 [compound 40]
[4]
  mortality at 10 ppm: 90%

## CN(C(=O)NC(=O)c1c(F)cccc1F)c1ccc(Oc2ccc(S(=O)(=O)C(F)(F)F)cc2)cc1 [compound 41]
[4]
  mortality at 10 ppm: 100%

## CN(C(=O)NC(=O)c1c(F)cccc1F)c1ccc(Oc2ccc([N+](=O)[O-])cc2Cl)cc1 [compound 62]
[3]
  mortality at 1 ppm: 100%

## Cc1ccccc1C(=O)NC(=O)N(C)c1ccc(Oc2ccc(C(F)(F)F)cc2Cl)c(F)c1 [compound 63]
[3]
  mortality at 1 ppm: 100%

## Cc1cc(N(C)C(=O)NC(=O)c2ccccc2C)ccc1Oc1ccc(C(F)(F)F)cc1Cl [compound 64]
[3]
  mortality at 1 ppm: 90%

## Cc1cc(N(C)C(=O)NC(=O)c2c(F)cccc2F)cc(C)c1Oc1ccc(C(F)(F)F)cc1Cl [compound 65]
[3]
  mortality at 1 ppm: 100%

## Cc1ccccc1C(=O)NC(=O)N(C)c1cc(C)c(Oc2ccc(C(F)(F)F)cc2Cl)c(C)c1 [compound 66]
[3]
  mortality at 1 ppm: 100%

## CN(C(=O)NC(=O)c1c(F)cccc1F)c1ccc(Oc2ncc(Cl)cc2C(F)(F)F)cc1 [compound 74]
[3]
  mortality at 1 ppm: 100%

## COc1cc(N(C)C(=O)NC(=O)c2c(F)cccc2F)ccc1Oc1ncc(C(F)(F)F)cc1Cl [compound 75]
[4]
  mortality at 10 ppm: 90%
[3]
  mortality at 1 ppm: 90%

## Cc1cc(N(C)C(=O)NC(=O)c2ccccc2Cl)ccc1Oc1ncc(C(F)(F)F)cc1Cl [compound 77, N-{4-[3-chloro-5-trifluoromethyl-2-pyridyloxy]-3-methylphenyl}-N'-(2-chlorobenzoyl)-N-methylurea]
[4]
  mortality at 10 ppm: 100%

## CN(C(=O)NC(=O)c1c(F)cccc1F)c1ccc(-c2ccc(C(F)(F)F)cc2)cc1 [compound 108]
[4]
  mortality at 10 ppm: 100%
[3]
  mortality at 1 ppm: 100%
  mortality at 800 ppm: 100%

## Cc1cc(-c2ccc(Br)cc2)ccc1N(C)C(=O)NC(=O)c1c(F)cccc1F [compound 109]
[4]
  mortality at 10 ppm: 100%
[3]
  mortality at 1 ppm: 100%
  mortality at 800 ppm: 100%

## Cc1ccc(N(C)C(=O)NC(=O)c2c(F)cccc2F)cc1Oc1ccc(C(F)(F)F)cc1Cl [compound 115]
[3]
  mortality at 1 ppm: 100%

## CN(C(=O)NC(=O)c1c(F)cccc1F)c1ccc(N(C)c2ncc(C(F)(F)F)cc2Cl)cc1 [compound 125]
[4]
  mortality at 10 ppm: 100%
[3]
  mortality at 1 ppm: 100%
  mortality at 800 ppm: 100%

## CN(C(=O)NC(=O)c1c(F)cccc1F)c1ccc(N(C)c2ccc(C(F)(F)F)cc2Cl)cc1 [compound 126]
[4]
  mortality at 10 ppm: 100%
[3]
  mortality at 1 ppm: 100%
  mortality at 800 ppm: 100%

## CN(C(=O)NC(=O)c1c(F)cccc1F)c1ccc(Oc2ccc(C(F)(F)F)cc2Cl)c(F)c1 [drawing 47 (R=CH3)]
Common cutworm
  minimal effective concentration: 0.04 µg/mL
Diamondback moth
  minimal effective concentration: 0.08 µg/mL
Daphnia magna Straus
  EC50 of Daphnia magna Straus (50% immobilisation concentration): 150 ppb
[5]
  Remaining rate in the soil: 76%

## O=C(NC(=O)c1c(F)cccc1F)Nc1ccc(Oc2ccc(C(F)(F)F)cc2Cl)c(F)c1 [drawing 47 (R=H), reference compound]
Common cutworm
  minimal effective concentration: 0.04 µg/mL
Diamondback moth
  minimal effective concentration: 0.08 µg/mL
Daphnia magna Straus
  EC50 of Daphnia magna Straus (50% immobilisation concentration): < 0.4 ppb
[5]
  Remaining rate in the soil: 91%

## CN(C(=O)NC(=O)c1c(F)cccc1F)c1ccc(Oc2ccc(C(F)(F)F)cc2Cl)cc1 [drawing 48 (R=CH3)]
Common cutworm
  minimal effective concentration: 0.02 µg/mL
Diamondback moth
  minimal effective concentration: 0.02 µg/mL
Daphnia magna Straus
  EC50 of Daphnia magna Straus (50% immobilisation concentration): 50 ppb
[5]
  Remaining rate in the soil: 49%

## O=C(NC(=O)c1c(F)cccc1F)Nc1ccc(Oc2ccc(C(F)(F)F)cc2Cl)cc1 [drawing 48 (R=H), reference compound]
Common cutworm
  minimal effective concentration: 0.08 µg/mL
Diamondback moth
  minimal effective concentration: 0.08 µg/mL
Daphnia magna Straus
  EC50 of Daphnia magna Straus (50% immobilisation concentration): < 0.4 ppb
[5]
  Remaining rate in the soil: 84%

## CN(C(=O)NC(=O)c1c(F)cccc1F)c1ccc(-c2ccc(Br)cc2)cc1 [drawing 49 (R=CH3)]
Common cutworm
  minimal effective concentration: 0.04 µg/mL
Diamondback moth
  minimal effective concentration: 0.02 µg/mL
Daphnia magna Straus
  EC50 of Daphnia magna Straus (50% immobilisation concentration): 150 ppb
[5]
  Remaining rate in the soil: 45%

## O=C(NC(=O)c1c(F)cccc1F)Nc1ccc(-c2ccc(Br)cc2)cc1 [drawing 49 (R=H), reference compound]
Common cutworm
  minimal effective concentration: 0.6 µg/mL
Diamondback moth
  minimal effective concentration: 0.3 µg/mL
Daphnia magna Straus
  EC50 of Daphnia magna Straus (50% immobilisation concentration): < 0.8 ppb
[5]
  Remaining rate in the soil: 77%
